One assay concerns CD33. On the set-up: method as in Rillahan et al., 2014. The settings on record: estimated, flow cytometry assay; ref Rillahan et al., 2014; cited from earlier work.
Another assay concerns the target CD33 R119A (Homo sapiens, UniProt P20138, R119A). The experiment in a line: surface plasmon resonance (SPR), CD33 R119A mutant. The settings on record: P22 as analyte, captured CD33 R119A. The format is binding. Also noted: DNA encoding D18 to H143 of human CD33; octa-histidine tag with TEV protease cleavage site (N); made in house; host or cells: E. coli BL21* (the general protein production text; the R119A protein is not described on its own). The text has this: We next performed surface plasmon resonance (SPR) measurements on P22 binding to CD33 wild-type, and selected mutants, to obtain detailed kinetic data (see Transparent Methods). The CD33 V-set domain has a free cysteine residue (C36), which caused anomalous results in some of our SPR experiments due to disulfide-linked oligomers forming in solution.
P22 (β-D-Glucopyranoside, 2-aminoethyl O-[N-[2-(4-cyclohexyl-1H-1,2,3-triazol-1-yl)acetyl]-9-deoxy-9-[(4-hydroxy-3,5-dimethylbenzoyl)amino]-α-neuraminosyl] (2→6)-O-β-D-galactopyranosyl-(1→4)-; CAS registry number [1809735-27-0]) was synthesized as described by Paulson and co-workers (Rillahan et al., 2014). Biotinylated P22 (Figure S1C) was prepared by treatment of a solution of P22 (12 mg, 0.012 mmol) in dimethylformamide (1 mL), with DIPEA (8.6 µL, […]) followed by addition of (+)- biotin N-hydroxysuccinimide ester (4.2 mg, 0.012 mmol), the resulting reaction mixture was then stirred for 2 h at RT. After which the reaction mixture was concentrated in vacuo and purified by reverse phase, performed via preparative HPLC (Stationary phase: RP XBridge Prep C18 OBD- 5µm,19x150mm, Mobile phase: 0.25% NH4HCO3 solution in water, CH3CN) to afford Biotin-P22 (9 mg, yield 60.9%). […]

The source of these data is publication PMC6669322, “Small Molecule Binding to Alzheimer Risk Factor CD33 Promotes Aβ Phagocytosis” (iScience, 2019).

Sequence of CD33 R119A (P20138 18-143 R119A): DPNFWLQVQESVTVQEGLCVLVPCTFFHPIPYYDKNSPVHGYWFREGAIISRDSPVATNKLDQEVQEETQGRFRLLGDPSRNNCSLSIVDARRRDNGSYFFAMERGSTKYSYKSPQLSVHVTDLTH

On to `Cc1cc(C(=O)NC[C@@H](O)[C@@H](O)[C@@H]2O[C@@](OC[C@H]3O[C@@H](O[C@H]4[C@H](O)[C@@H](O)[C@H](OCCN)O[C@@H]4CO)[C@H](O)[C@@H](O)[C@H]3O)(C(=O)O)C[C@H](O)[C@H]2NC(=O)Cn2cc(C3CCCCC3)nn2)cc(C)c1O` [P22, β-D-Glucopyranoside, 2-aminoethyl O-[N-[2-(4-cyclohexyl-1H-1,2,3-triazol-1-yl)acetyl]-9-deoxy-9-[(4-hydroxy-3,5-dimethylbenzoyl)amino]-α-neuraminosyl] (2→6)-O-β-D-galactopyranosyl-(1→4)-], for which the IC50 in the assay on CD33 was 11 µM. In addition, the “binding observed by SPR” value on CD33 R119A is “no binding”.
